From PubChem BioAssay AID248 (DTP/NCI, 2004)
“And” between values parts separate entries of the source, which are not always exact repeats. Equal values may be shown once. Toxic doses and inconclusive results are not listed.

Test system: L1210 leukemia ip in BDF1 mice, survival T/C
Assay: NCI In Vivo Anticancer Drug Screen. Data for tumor model L1210 Leukemia (intraperitoneal) in B6D2F1 (BDF1) mice
Conditions: endpoint: mean survival time, higher = longer survival
Summary of the method: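 Survival endpoint. Drug-treated group vs vehicle group, expressed as T divided by C. Tumor passaged by transplantation.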

With `C[n+]1ccc(Nc2ccc(NC(=O)c3ccc(Nc4cc[n+](C)c5ccc(N)cc45)cc3N)cc2)cc1` the T/C (dose: 0.25 mg/kg/injection, schedule: Q01DX005 (iv), vehicle: water) was 104 % of control, the T/C (dose: 0.5 mg/kg/injection, schedule: Q01DX005 (iv), vehicle: water) was 97 % of control and 107 % of control and the T/C (dose: 0.5 mg/kg/injection, schedule: Q01DX009 (ip), vehicle: water) was 113 % of control. For the same molecule, the T/C (dose: 0.5 mg/kg/injection, schedule: Q03HX008 (ip), vehicle: water) was 115 % of control, the T/C (dose: 0.5 mg/kg/injection, schedule: Q03HX016 (ip), vehicle: water) was 121 % of control and the T/C (dose: 0.5 mg/kg/injection, schedule: Q03HX024 (sc), vehicle: water) was 104 % of control. The T/C (dose: 0.5 mg/kg/injection, schedule: Q04DX003 (iv), vehicle: water) was 104 % of control, the T/C (dose: 0.78 mg/kg/injection, schedule: Q01DX009 (ip), vehicle: saline) was 100 % of control and the T/C (dose: 1.0 mg/kg/injection, schedule: Q01DX005 (iv), vehicle: water) was 104 % of control and 105 % of control. For the same molecule, the T/C (dose: 1.0 mg/kg/injection, schedule: Q01DX009 (ip), vehicle: water) was 118 % of control, the T/C (dose: 1.0 mg/kg/injection, schedule: Q01DX009 (oral), vehicle: water) was 109 % of control and the T/C (dose: 1.0 mg/kg/injection, schedule: Q01DX009 (sc), vehicle: saline with Tween-80) was 101 % of control. For the same molecule, the T/C (dose: 1.0 mg/kg/injection, schedule: Q01DX009 (sc), vehicle: water) was 106 % of control, the T/C (dose: 1.0 mg/kg/injection, schedule: Q03HX016 (ip), vehicle: water) was 159 % of control and the T/C (dose: 1.0 mg/kg/injection, schedule: Q03HX024 (ip), vehicle: water) was 165 % of control. The T/C (dose: 1.0 mg/kg/injection, schedule: Q03HX024 (oral), vehicle: water) was 94 % of control and 103 % of control, the T/C (dose: 1.0 mg/kg/injection, schedule: Q03HX024 (sc), vehicle: water) was 114 % of control and the T/C (dose: 1.0 mg/kg/injection, schedule: Q04DX003 (iv), vehicle: water) was 102 % of control. The T/C (dose: 1.56 mg/kg/injection, schedule: Q01DX009 (ip), vehicle: saline) was 114 % of control, the T/C (dose: 2.0 mg/kg/injection, schedule: Q01DX001 (ip), vehicle: water) was 106 % of control and the T/C (dose: 2.0 mg/kg/injection, schedule: Q01DX002 (ip), vehicle: water) was 110 % of control. For the same molecule, the T/C (dose: 2.0 mg/kg/injection, schedule: Q01DX005 (iv), vehicle: water) was 115 % of control and 116 % of control, the T/C (dose: 2.0 mg/kg/injection, schedule: Q01DX009 (ip), vehicle: water) was 151 % of control and 157 % of control and 205 % of control and the T/C (dose: 2.0 mg/kg/injection, schedule: Q01DX009 (oral), vehicle: water) was 107 % of control. The T/C (dose: 2.0 mg/kg/injection, schedule: Q03HX008 (ip), vehicle: water) was 155 % of control and 170 % of control, the T/C (dose: 2.0 mg/kg/injection, schedule: Q03HX016 (ip), vehicle: water) was 158 % of control and 216 % of control and the T/C (dose: 2.0 mg/kg/injection, schedule: Q03HX024 (ip), vehicle: water) was 225 % of control and 236 % of control. For the same molecule, the T/C (dose: 2.0 mg/kg/injection, schedule: Q03HX024 (oral), vehicle: water) was 102 % of control and 103 % of control, the T/C (dose: 2.0 mg/kg/injection, schedule: Q03HX024 (sc), vehicle: water) was 180 % of control and the T/C (dose: 2.0 mg/kg/injection, schedule: Q04DX003 (ip), vehicle: water) was 105 % of control. The T/C (dose: 2.0 mg/kg/injection, schedule: Q04DX003 (iv), vehicle: water) was 104 % of control, the T/C (dose: 4.0 mg/kg/injection, schedule: Q01DX001 (ip), vehicle: water) was 116 % of control and the T/C (dose: 4.0 mg/kg/injection, schedule: Q01DX002 (ip), vehicle: water) was 117 % of control. The T/C (dose: 4.0 mg/kg/injection, schedule: Q01DX009 (ip), vehicle: water) was 243 % of control and 248 % of control and 456 % of control, the T/C (dose: 4.0 mg/kg/injection, schedule: Q01DX009 (oral), vehicle: water) was 106 % of control and the T/C (dose: 4.0 mg/kg/injection, schedule: Q01DX009 (sc), vehicle: water) was 214 % of control. For the same molecule, the T/C (dose: 4.0 mg/kg/injection, schedule: Q03HX008 (ip), vehicle: water) was 165 % of control and 252 % of control, the T/C (dose: 4.0 mg/kg/injection, schedule: Q03HX016 (ip), vehicle: water) was 178 % of control and 326 % of control and the T/C (dose: 4.0 mg/kg/injection, schedule: Q03HX024 (ip), vehicle: water) was 233 % of control and 329 % of control. For the same molecule, the T/C (dose: 4.0 mg/kg/injection, schedule: Q03HX024 (oral), vehicle: water) was 100 % of control and 110 % of control, the T/C (dose: 4.0 mg/kg/injection, schedule: Q03HX024 (sc), vehicle: water) was 203 % of control and the T/C (dose: 4.0 mg/kg/injection, schedule: Q04DX003 (ip), vehicle: water) was 120 % of control. The T/C (dose: 4.0 mg/kg/injection, schedule: Q04DX003 (iv), vehicle: water) was 102 % of control, the T/C (dose: 6.25 mg/kg/injection, schedule: Q01DX009 (ip), vehicle: saline) was 161 % of control and the T/C (dose: 8.0 mg/kg/injection, schedule: Q01DX001 (ip), vehicle: water) was 116 % of control. For the same molecule, the T/C (dose: 8.0 mg/kg/injection, schedule: Q01DX005 (ip), vehicle: water) was 256 % of control, the T/C (dose: 8.0 mg/kg/injection, schedule: Q01DX009 (ip), vehicle: water) was 326 % of control and 417 % of control and 436 % of control and the T/C (dose: 8.0 mg/kg/injection, schedule: Q01DX009 (oral), vehicle: water) was 98 % of control and 103 % of control and 111 % of control. For the same molecule, the T/C (dose: 8.0 mg/kg/injection, schedule: Q01DX009 (sc), vehicle: water) was 195 % of control, the T/C (dose: 8.0 mg/kg/injection, schedule: Q03HX008 (ip), vehicle: water) was 178 % of control and the T/C (dose: 8.0 mg/kg/injection, schedule: Q03HX024 (ip), vehicle: water) was 153 % of control. The T/C (dose: 8.0 mg/kg/injection, schedule: Q03HX024 (oral), vehicle: water) was 100 % of control, the T/C (dose: 8.0 mg/kg/injection, schedule: Q03HX024 (sc), vehicle: water) was 163 % of control and the T/C (dose: 8.0 mg/kg/injection, schedule: Q04DX003 (ip), vehicle: water) was 150 % of control. The T/C (dose: 10.0 mg/kg/injection, schedule: Q01DX009 (oral), vehicle: saline with Tween-80) was 100 % of control, the T/C (dose: 12.5 mg/kg/injection, schedule: Q01DX009 (ip), vehicle: saline) was 231 % of control and the T/C (dose: 16.0 mg/kg/injection, schedule: Q01DX001 (ip), vehicle: water) was 161 % of control. The T/C (dose: 16.0 mg/kg/injection, schedule: Q01DX002 (ip), vehicle: water) was 155 % of control, the T/C (dose: 16.0 mg/kg/injection, schedule: Q01DX005 (ip), vehicle: water) was 225 % of control and the T/C (dose: 16.0 mg/kg/injection, schedule: Q01DX009 (ip), vehicle: water) was 382 % of control. For the same molecule, the T/C (dose: 16.0 mg/kg/injection, schedule: Q01DX009 (oral), vehicle: water) was 98 % of control and 103 % of control, the T/C (dose: 16.0 mg/kg/injection, schedule: Q01DX009 (sc), vehicle: water) was 230 % of control and the T/C (dose: 16.0 mg/kg/injection, schedule: Q04DX003 (ip), vehicle: water) was 167 % of control and 168 % of control and 190 % of control. The T/C (dose: 16.0 mg/kg/injection, schedule: Q08DX002 (ip), vehicle: water) was 171 % of control, the T/C (dose: 20.0 mg/kg/injection, schedule: Q01DX009 (oral), vehicle: saline with Tween-80) was 104 % of control and the T/C (dose: 25.0 mg/kg/injection, schedule: Q01DX001 (ip), vehicle: saline) was 108 % of control. For the same molecule, the T/C (dose: 25.0 mg/kg/injection, schedule: Q01DX009 (ip), vehicle: saline) was 364 % of control, the T/C (dose: 32.0 mg/kg/injection, schedule: Q01DX009 (oral), vehicle: water) was 100 % of control and the T/C (dose: 50.0 mg/kg/injection, schedule: Q01DX001 (ip), vehicle: saline) was 161 % of control. For the same molecule, the T/C (dose: 50.0 mg/kg/injection, schedule: Q01DX009 (ip), vehicle: saline) was 331 % of control, the T/C (dose: 64.0 mg/kg/injection, schedule: Q01DX009 (oral), vehicle: water) was 106 % of control and 109 % of control and the T/C (dose: 80.0 mg/kg/injection, schedule: Q01DX009 (oral), vehicle: saline with Tween-80) was 106 % of control. The T/C (dose: 160.0 mg/kg/injection, schedule: Q01DX009 (oral), vehicle: saline with Tween-80) was 101 % of control and the T/C (dose: 200.0 mg/kg/injection, schedule: Q01DX001 (ip), vehicle: saline) was 257 % of control.
